Data from DBAASP.
Values after ≈ are worked out from the molar mass of the structure shown. Blank lines part the entries; values can stand above or below the compound they belong to.

Key:
Experiment in all cases: ≥ marks a high value that may be exact or a test limit, other limits are often not marked, values filed in µg/mL are converted to µM
[1] = test system: Rhodococcus rhodochrous X15
[2] = test system: Staphylococcus carnosus KHS
[3] = test system: Staphylococcus aureus ATCC 2592
[4] = test system: Bacillus licheniformis X39
[5] = test system: Staphylococcus aureus ΔmprF
[6] = test system: Staphylococcus aureus ΔmprFpRBsyn
[7] = test system: Brucella abortus 9.49 (per-)
[8] = test system: Escherichia coli ATCC 25922
[9] = test system: Acinetobacter baumannii ATCC 19606
[10] = test system: Staphylococcus aureus
[11] = test system: Pseudomonas aeruginosa CUN 4158-02
[12] = test system: Staphylococcus aureus ATCC 43300
[13] = test system: Bordetella bronchiseptica CUN 11844-99
[14] = test system: Yersinia pestis KIM pYV
[15] = test system: Bacillus subtilis ATCC 6633
[16] = test system: Escherichia coli ATCC 33694
[17] = test system: Acinetobacter baumannii KCTC 2508
[18] = test system: Acinetobacter baumannii
[19] = test system: Neurospora crassa CBS 327-54
[20] = test system: Fusarium haematococcum 160.2.2

MIC [1]: 4.8 µM (≈ 6.25 µg/mL)
MIC [2]: 9.5 µM (≈ 12.4 µg/mL)
MIC [3]: 9.5 µM (≈ 12.4 µg/mL)
MIC [4]: 19 µM (≈ 24.8 µg/mL)
Structure (SMILES): CC[C@H](C)[C@H](NC(=O)[C@H](CC(C)C)NC(=O)CNC(=O)[C@H](C)NC(=O)[C@H](CC(C)C)NC(=O)[C@@H](N)Cc1ccccc1)C(=O)NCC(=O)NCC(=O)N[C@@H](CC(C)C)C(=O)N[C@@H](C)C(=O)N[C@@H](CCCCN)C(=O)N[C@@H](CCSC)C(=O)N[C@@H](CC(C)C)C(N)=O [FLAGLIGGLAKML]

Structure (SMILES): CC[C@H](C)[C@H](NC(=O)[C@H](CCCN=C(N)N)NC(=O)[C@H](CCCN=C(N)N)NC(=O)[C@H](CC(C)C)NC(=O)[C@H](Cc1ccccc1)NC(=O)[C@@H](NC(=O)[C@H](CCCN=C(N)N)NC(=O)[C@H](CCSC)NC(=O)[C@@H](NC(=O)[C@H](CCCCN)NC(=O)[C@H](CCCCN)NC(=O)[C@H](CO)NC(=O)[C@@H](NC(=O)[C@@H](N)CCCCN)[C@@H](C)CC)[C@@H](C)CC)[C@@H](C)O)C(=O)N[C@@H](CO)C(=O)N[C@@H](CCCCN)C(=O)N[C@@H](CC(=O)O)C(=O)N[C@H](C(=O)N[C@@H](CC(C)C)C(=O)N[C@H](C(=O)NCC(=O)N[C@@H](CCCCN)C(=O)N[C@@H](CCCCN)C(N)=O)[C@@H](C)O)[C@@H](C)CC [KISKKIMRTFLRRISKDILTGKK]
MIC [5]: 1.45 µM (≈ 4 µg/mL)
MIC [6]: 1.45 µM (≈ 4 µg/mL)
MIC [7]: 0.724 µM (≈ 2 µg/mL)
MIC [8]: 1.45 µM (≈ 4 µg/mL)
MIC [9]: 1.45 µM (≈ 4 µg/mL)
MIC [10]: 11.6 µM (≈ 32 µg/mL)
MIC [11]: 1.45 µM (≈ 4 µg/mL)
MIC [12]: > 92.7 µM
MIC [13]: 0.362 µM (≈ 1 µg/mL)
MIC [14]: ≥ 46.4 µM

MIC [15]: 1.1 µM (≈ 2.43 µg/mL)
MIC [16]: 8.84 µM (≈ 19.4 µg/mL)
MIC [17]: 3.12 µM (≈ 6.86 µg/mL)
MIC [18]: 4.42 µM (≈ 9.71 µg/mL)
Structure (SMILES): CC[C@H](C)[C@H](NC(=O)CNC(=O)[C@@H](NC(=O)[C@H](CCCCN)NC(=O)[C@H](CCCCN)NC(=O)[C@H](Cc1ccccc1)NC(=O)[C@H](CC(C)C)NC(=O)[C@H](CCCCN)NC(=O)[C@H](Cc1c[nH]c2ccccc12)NC(=O)[C@@H](N)CCCCN)[C@@H](C)CC)C(=O)NCC(=O)N[C@@H](C)C(=O)N[C@H](C(=O)N[C@@H](CC(C)C)C(=O)N[C@@H](CCCCN)C(=O)N[C@H](C(=O)N[C@@H](CC(C)C)C(=O)N[C@H](C(=O)N[C@H](C(=O)NCC(N)=O)[C@@H](C)O)[C@@H](C)O)C(C)C)C(C)C [KWKLFKKIGIGAVLKVLTTG]

MIC [19]: ≥ 100 µM
MIC [20]: 30 µM (≈ 72.1 µg/mL)
Structure (SMILES): CC[C@H](C)[C@H](NC(=O)[C@H](CCCN=C(N)N)NC(=O)[C@H](CCC(=O)O)NC(=O)[C@H](CC(=O)O)NC(=O)CNC(=O)[C@H](CCCN=C(N)N)NC(=O)[C@H](CC(C)C)NC(=O)[C@@H](N)[C@@H](C)O)C(=O)N[C@@H](CC(C)C)C(=O)N[C@@H](CO)C(=O)N[C@H](C(=O)N[C@@H](CC(C)C)C(=O)N[C@@H](CCCN=C(N)N)C(=O)N[C@@H](Cc1cnc[nH]1)C(=O)N[C@@H](CCC(N)=O)C(=O)N[C@@H](CC(N)=O)C(=O)N[C@@H](CC(C)C)C(=O)N[C@@H](CC(C)C)C(=O)N[C@@H](CCCCN)C(=O)N[C@@H](CCC(=O)O)C(=O)O)[C@@H](C)CC [TLRGDERILSILRHQNLLKE]
